Measured values from patent US9914735B2, “Heteroaryl Syk inhibitors” (Boehringer Ingelheim International GmbH, priority 2014, dated 2018).
Like-named read-outs stand apart in the source and are kept apart here.

How the values were obtained:
[1] = Human liver microsomal stability test; assay type: in vitro ADME; conditions: for microsomal stability Cl [% Qh]: human liver microsomes, Qh = liver blood flow
Protocol: The metabolic degradation for a specific SYK-inhibitor is performed at 37° C. with pooled human liver microsomes (human liver microsomes are commercially available as “BD UltraPool™” by Corning Life Sciences, Fogostraat 12, 1060 LJ Amsterdam, The Netherlands). The final incubation volume of 100 μl per time point contains TRIS buffer pH 7.6 at RT (0.1 M), magnesium chloride (5 mM), microsomal protein (1 mg/ml) and the test compound at a final concentration of 1 μM.
Following a short preincubation period at 37° C., the reaction is initiated by addition of beta-nicotinamide adenine dinucleotide phosphate in its reduced form (NADPH, 1 mM) and terminated by transfering an aliquot into solvent after different time points. Additionally, the NADPH-independent degradation is monitored in incubations without NADPH, terminated at the last time point.
The quenched (terminated) incubations are then pelleted by centrifugation (10000 g, 5 min).
An aliquot of the supernatant is assayed by LC-MS/MS for the remaining amount of parent compound. The half-life (t1/2 INVITRO) is determined by the slope of the semilogarithmic plot of the concentration-time profile.
The intrinsic clearance (CL_[…]) is calculated by considering the amount of protein in the incubation: CL_[…][μl/min/mg protein]=(Ln 2/(t1/2 INVITRO[min]*protein content[mg/ml]))*1000
The protein content [mg/ml] was determined with the “Bicinchoninic Acid Kit” of Sigma Aldrich (commercially available).
The upscaled intrinsic Clearance (CL_UP_INT) is calculated by considering the liver weight [g liver/kg body weight] and the microsomal recovery [mg protein/g liver]: CL_UP_INT[ml/min/kg]=0.001*CL_[…]*liver weight*microsomal recovery • with microsomal recovery=45 mg protein/g liver • with liver weight=25.7 g liver/kg body weight
The percent hepatic blood flow (% Qh) is finally calculated by considering the human liver blood flow Q [ml/min/kg]: % Qh[%]=((Q*CL_UP_INT)/(Q+CL_UP_INT)/Q)*100 • with liver blood flow (Q)=20.7 ml/min/kg.

[2] = target: Recombinant human Aurora B (amino acids 1-344) (Homo sapiens (Human), UniProt Q96GD4); assay: Aurora B kinase test (ADP Glo luminescence); assay type: biochemical
Chain of Recombinant human Aurora B (amino acids 1-344) (Q96GD4 whole entry, the tested form may be a part): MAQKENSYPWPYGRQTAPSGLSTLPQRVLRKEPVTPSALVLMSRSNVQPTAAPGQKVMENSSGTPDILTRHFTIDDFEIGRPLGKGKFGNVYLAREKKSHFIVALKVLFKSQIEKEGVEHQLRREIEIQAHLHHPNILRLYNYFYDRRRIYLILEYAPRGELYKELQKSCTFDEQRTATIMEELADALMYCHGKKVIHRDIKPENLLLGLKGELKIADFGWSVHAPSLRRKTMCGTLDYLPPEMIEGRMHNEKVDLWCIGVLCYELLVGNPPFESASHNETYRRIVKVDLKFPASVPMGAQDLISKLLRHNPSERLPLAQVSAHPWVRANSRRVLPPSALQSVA
Protocol: The activity of the Aurora B kinase protein was determined using the ADP Glo® Luminescence Kinase test (Promega; V9103X).
Serial Dilution is done in 1:10 steps in 100% DMSO.
Then 20 μl Kinase detection mix (Detection Buffer #V913B Promega; Kinase Detection Substrate #V914B Promega) were added and incubated for 40 minutes at room temperature.
(§1) The output file of the reader is a csv file that contains the well number and measured RLU. For data evaluation and calculation, the measurement of the negative control was set as 0% ctrl and the measurement of the positive control was set as 100% ctrl. Based on this values the % value for the measurement of each substance concentration was calculated using an Assay Explorer software (Accelrys). Normally, the % ctrl values calculated are between 0% and 100% values but may also occur outside these limits in individual cases based on variability or compound characteristics. The IC50 values were calculated from the % ctrl values using Assay Explorer software. Calculation: [y=(a−d)/(1+(x/c)^b)+d], a=low value, d=high value; x=conc M; c=IC50 M; b=hill; y=% ctrl.

FLT3 = FLT3 (Homo sapiens (Human), UniProt P36888); assay: FLT3 kinase test (Z'-LYTE); assay type: biochemical; conditions: Table 1; read-out: FLT3-inhibition IC50-value
Chain of FLT3 (P36888 27-993): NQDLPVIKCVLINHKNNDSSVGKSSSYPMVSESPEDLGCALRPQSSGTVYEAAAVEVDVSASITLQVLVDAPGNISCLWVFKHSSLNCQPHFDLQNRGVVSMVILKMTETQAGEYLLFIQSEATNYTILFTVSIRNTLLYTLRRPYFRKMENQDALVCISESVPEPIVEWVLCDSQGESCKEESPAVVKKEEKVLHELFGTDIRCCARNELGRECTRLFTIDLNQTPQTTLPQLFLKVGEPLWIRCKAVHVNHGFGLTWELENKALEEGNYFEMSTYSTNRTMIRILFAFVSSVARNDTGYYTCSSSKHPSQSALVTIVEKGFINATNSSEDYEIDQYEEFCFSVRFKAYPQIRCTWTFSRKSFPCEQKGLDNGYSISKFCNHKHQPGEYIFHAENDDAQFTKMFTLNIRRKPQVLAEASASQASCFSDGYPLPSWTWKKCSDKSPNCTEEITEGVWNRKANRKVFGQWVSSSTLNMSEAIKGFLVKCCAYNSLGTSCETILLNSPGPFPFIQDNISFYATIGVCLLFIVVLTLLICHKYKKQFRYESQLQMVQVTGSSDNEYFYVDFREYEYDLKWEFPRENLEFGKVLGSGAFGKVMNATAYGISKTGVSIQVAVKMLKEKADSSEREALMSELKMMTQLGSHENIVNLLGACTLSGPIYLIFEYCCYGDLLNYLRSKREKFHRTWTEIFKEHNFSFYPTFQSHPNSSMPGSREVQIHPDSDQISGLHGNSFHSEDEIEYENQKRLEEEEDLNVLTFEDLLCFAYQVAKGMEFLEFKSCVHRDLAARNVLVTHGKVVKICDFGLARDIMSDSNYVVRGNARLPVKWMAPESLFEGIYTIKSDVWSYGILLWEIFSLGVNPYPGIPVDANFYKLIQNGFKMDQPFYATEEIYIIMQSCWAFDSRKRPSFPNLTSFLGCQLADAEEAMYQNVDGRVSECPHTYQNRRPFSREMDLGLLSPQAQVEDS
Protocol: The activity of FLT3 is measured using the Z′-LYTETM assay technology from Invitrogen (#PV3191)
The reaction is started by addition of 2.5 μl of the 4×ATP solution.
Positive controls are reaction mixtures containing no test compound; negative controls (blanks) are reaction mixtures containing no kinase. As a further control, the phosphopeptide solution is added to wells without kinase (=100% phosphorylation control).
The reaction is performed for 1 h at room temperature before 5 μl of the development solution is added. After a further incubation for 1 h at room temperature 5 μl of the stop reagent is added.
The output text file is evaluated in an “MS-Excel—VB-Makro” and “GraphPadPrism” (Version 5) (GraphPad Software Inc.) is used to calculate the results. Data for the inhibition of FLT3 are reported in M. data for the inhibition of the protease are reported in % CTL.

[3] = target: Recombinant human Syk (amino acids 342-635), GST-Syk kinase fusion protein (Homo sapiens (Human), UniProt P43405); assay: Syk kinase test (Kinase Glo luminescence); assay type: biochemical; conditions: Table 1; read-out: SYK-inhibition IC50-value
Protocol: as §1, with “measured relative light units (RLU).” for “measured RLU.”, “as 100%” for “as 0%”, “as 0%” for “as 100%”, “software. Calculation:[y=(a−d)/(1+(x/c)^b)+d]” for “software. Calculation: [y=(a−d)/(1+(x/c)^b)+d],”

[4] = Table 1, read-out: AURB-inhibition IC50-value

| microsomal stability Cl [% Qh] [1] [% Qh] | IC50 [2, 4] [µM] | IC50 (FLT3) [µM] | IC50 [3] [µM] | IC50 ([2]; read-out: IC50-values with regard to AURB) [µM] | human liver microsomal stability CI [1] [% Qh] | SMILES |
| --- | --- | --- | --- | --- | --- | --- |
| 53 | – | – | – | – | – | C[C@@H](Oc1nc(-c2ccc(N3CCOCC3)nc2)cc2ncccc12)[C@H]1CNC(=O)C1 [45 of WO 2011/092128] |
| <23 | – | – | – | – | – | Cc1c(-c2cc(O[C@H](C)[C@H]3CNC(=O)C3)c3cccnc3c2)cnn1C [112 of WO 2013/014060] |
| <23 | – | – | – | – | – | CC(C)n1cc(-c2cc(O[C@H](C)[C@H]3CNC(=O)C3)c3cccnc3c2)cn1 [115 of WO 2013/014060] |
| – | > 50 | 3.07 | 0.0436 | – | – | C[C@@H](Oc1nc(-c2ccc3c(c2)CCN(C)CC3)cc2nn(C)cc12)[C@H]1CNC(=O)C1 [Example 55, (4R)-4-[(1R)-1-[2-methyl-6-(3-methyl-1,2,4,5-tetrahydro-3-benzazepin-7-yl)pyrazolo-[4,3-c]pyridin-4-yl]oxyethyl]-pyrrolidin-2-one] |
| – | 34.7 | 9.75 | 0.145 | – | – | C[C@@H](Oc1nc(-c2ccc(C(F)(F)F)cc2)cc2nn(C)cc12)[C@H]1CNC(=O)C1 [Example 60, (4R)-4-[(1R)-1-[2-methyl-6-[4-(trifluoromethyl)phenyl]-pyrazolo[4,3-c]pyridin-4-yl]-oxyethyl]pyrrolidin-2-one] |
| – | > 50 | 21.6 | 0.0258 | – | – | C[C@@H](Oc1nc(-c2cnn(C3CCOCC3)c2)cc2nn(C)cc12)[C@H]1CNC(=O)C1 [Example 64, (4R)-4-[(1R)-1-[2-methyl-6-(1-tetrahydropyran-4-yl-pyrazol-4-yl)pyrazolo[4,3-c]pyridin-4-yl]oxyethyl]-pyrrolidin-2-one] |
| – | > 50 | 4.44 | 0.0385 | – | – | C[C@@H](Oc1nc(-c2ccc(N3CCOCC3)nc2)cc2nn(C)cc12)[C@H]1CNC(=O)C1 [Example 66, (4R)-4-[(1R)-1-[2-methyl-6-(6-morpholino-3-pyridyl)-pyrazolo[4,3-c]pyridin-4-yl]oxyethyl]pyrrolidin-2-one] |
| – | > 50 | 17 | 0.0345 | – | – | C[C@@H](Oc1nc(-c2cnn([C@H]3CCOC3)c2)cc2nn(C)cc12)[C@H]1CNC(=O)C1 [Example 70, (4R)-4-[(1R)-1-[2-methyl-6-[1-[(3S)-tetrahydrofuran-3-yl]pyrazol-4-yl]pyrazolo[4,3-c]pyridin-4-yl]oxyethyl]-pyrrolidin-2-one] |
| – | > 50 | 7.65 | 0.015 | – | – | Cc1cc(-c2cc3nn(C)cc3c(O[C@H](C)[C@H]3CNC(=O)C3)n2)ccc1N1CCCS1(=O)=O [Example 71, (4R)-4-[(1R)-1-[6-[4-(1,1-dioxo-1,2-thiazolidin-2-yl)-3-methyl-phenyl]-2-methyl-pyrazolo[4,3-c]pyridin-4-yl]oxyethyl]pyrrolidin-2-one] |
| – | 8.54 | 1.59 | 0.0998 | – | – | C[C@@H](Oc1nc(-c2ccc3c(c2)CN(C)CC3)cc2nn(C)cc12)[C@H]1CNC(=O)C1 [Example 75, (4R)-4-[(1R)-1-[2-methyl-6-(2-methyl-3,4-dihydro-1H-isoquinolin-7-yl)pyrazolo[4,3-c]pyridin-4-yl]oxyethyl]-pyrrolidin-2-one] |

Second part, the compound before the results:

| SMILES | microsomal stability Cl [% Qh] [1] [% Qh] | IC50 [2, 4] [µM] | IC50 (FLT3) [µM] | IC50 [3] [µM] | IC50 ([2]; read-out: IC50-values with regard to AURB) [µM] | human liver microsomal stability CI [1] [% Qh] |
| --- | --- | --- | --- | --- | --- | --- |
| CCCn1cc(-c2cc(O[C@H](C)[C@H]3CNC(=O)C3)c3cccnc3c2)cn1 [114 of WO 2013/014060] | 26 | – | – | – | – | – |
| COCCn1cc(-c2cc3nn(C)cc3c(O[C@H](C)[C@H]3CNC(=O)C3)n2)cn1 [Example 57, (4R)-4-[(1R)-1-[6-[1-(2-methoxyethyl)pyrazol-4-yl]-2-methyl-pyrazolo[4,3-c]pyridin-4-yl]oxyethyl]pyrrolidin-2-one] | – | > 50 | 32 | 0.0901 | – | – |
| CCn1cc(-c2cc3nn(C)cc3c(O[C@H](C)[C@H]3CNC(=O)C3)n2)cn1 [Example 58, (4R)-4-[(1R)-1-[6-(1-ethylpyrazol-4-yl)-2-methyl-pyrazolo[4,3-c]pyridin-4-yl]oxyethyl]pyrrolidin-2-one] | – | > 50 | 17.1 | 0.0366 | – | – |
| C[C@@H](Oc1nc(-c2cnn(C)c2)cc2nn(C)cc12)[C@H]1CNC(=O)C1 [Example 63, (4R)-4-[(1R)-1-[2-methyl-6-(1-methylpyrazol-4-yl)pyrazolo[4,3-c]pyridin-4-yl]oxyethyl]pyrrolidin-2-one] | – | > 50 | 13.2 | 0.0473 | – | – |
| CC(C)n1cc(-c2cc3nn(C)cc3c(O[C@H](C)[C@H]3CNC(=O)C3)n2)cn1 [Example 65, (4R)-4-[(1R)-1-[6-(1-iso-propylpyrazol-4-yl)-2-methyl-pyrazolo[4,3-c]pyridin-4-yl]-oxyethyl]pyrrolidin-2-one] | – | > 50 | 14.8 | 0.0211 | – | – |
| Cc1nn(C)cc1-c1cc2nn(C)cc2c(O[C@H](C)[C@H]2CNC(=O)C2)n1 [Example 68, (4R)-4-[(1R)-1-[6-(1,3-dimethylpyrazol-4-yl)-2-methyl-pyrazolo[4,3-c]pyridin-4-yl]oxyethyl]pyrrolidin-2-one] | – | > 50 | 22.4 | 0.0652 | – | – |
| Cc1c(-c2cc3nn(C)cc3c(O[C@H](C)[C@H]3CNC(=O)C3)n2)cnn1C [Example 69, (4R)-4-[(1R)-1-[6-(1,5-dimethylpyrazol-4-yl)-2-methyl-pyrazolo[4,3-c]pyridin-4-yl]oxyethyl]pyrrolidin-2-one] | – | > 50 | 45.1 | 0.197 | – | – |
| C[C@@H](Oc1nc(-c2cnn(CCC(F)(F)F)c2)cc2nn(C)cc12)[C@H]1CNC(=O)C1 [Example 76, (4R)-4-[(1R)-1-[2-methyl-6-[1-(3,3,3-trifluoropropyl)-pyrazol-4-yl]pyrazolo[4,3-c]pyridin-4-yl]oxyethyl]-pyrrolidin-2-one] | – | 46.2 | 14.8 | 0.0583 | – | – |
| C[C@@H](Oc1nc(-c2cc3cccc(Cl)c3[nH]2)cc2nn(C)cc12)[C@H]1CNC(=O)C1 [Example 77, (4R)-4-[(1R)-1-[6-(7-chloro-1H-indol-2-yl)-2-methyl-pyrazolo[4,3-c]pyridin-4-yl]oxyethyl]pyrrolidin-2-on] | – | 43.4 | 3.75 | 0.0498 | – | – |
| C[C@@H](Oc1nc(-c2cnn(C3CC3)c2)cc2nn(C)cc12)[C@H]1CNC(=O)C1 [Example 78, (4R)-4-[(1R)-1-[6-(1-cyclopropylpyrazol-4-yl)-2-methyl-pyrazolo[4,3-c]pyridin-4-yl]oxyethyl]pyrrolidin-2-one] | – | > 50 | 22 | 0.0359 | – | – |
| COc1cc(-c2cc(O[C@H](C)[C@H]3CNC(=O)C3)c3cccnc3c2)cc(OC)c1OC [example 2 of WO2013/014060, reference compound] | – | – | – | – | 16.9 | 81 |
